In ChEMBL document CHEMBL1131211, “Cyclopropane-derived peptidomimetics. Design, synthesis, evaluation, and structure of novel HIV-1 protease inhibitors” (J Med Chem, 1998):

Target: Human immunodeficiency virus type 1 protease (Human immunodeficiency virus 1, UniProt Q72874)
Experiment: Inhibitory activity was measured against wild-type HIV-1 protease

`CN(Cc1ccccn1)C(=O)[C@H]1[C@H](C(=O)N[C@@H](Cc2ccccc2)[C@@H](O)[C@H](O)[C@H](Cc2ccccc2)NC(=O)[C@H]2[C@H](C(=O)N(C)Cc3ccccn3)C2(C)C)C1(C)C` was tested. Which Ki did it give?
The Ki was 80 nM.

How did the Ki turn out when `CC1(C)[C@@H](C(=O)NCc2ccccc2)[C@@H]1C(=O)N[C@@H](Cc1ccccc1)[C@@H](O)[C@H](O)[C@H](Cc1ccccc1)NC(=O)[C@H]1[C@H](C(=O)NCc2ccccc2)C1(C)C` was run?
Its Ki is 0.31 nM.

Which Ki does the source give for `CC(C)[C@H](NC(=O)N(C)Cc1ccccn1)C(=O)N[C@@H](Cc1ccccc1)[C@@H](O)[C@H](O)[C@H](Cc1ccccc1)NC(=O)[C@@H](NC(=O)N(C)Cc1ccccn1)C(C)C` here?
The Ki was 0.11 nM.

`C[C@H]1[C@@H](C(=O)NCc2ccccc2)[C@@H]1C(=O)N[C@@H](Cc1ccccc1)[C@@H](O)[C@H](O)[C@H](Cc1ccccc1)NC(=O)[C@@H]1[C@@H](C)[C@H]1C(=O)NCc1ccccc1` was tested. Which Ki did it give?
The Ki was 0.16 nM.

For `C[C@@H]1[C@@H](C(=O)NCc2ccccc2)[C@@H]1C(=O)N[C@@H](Cc1ccccc1)[C@@H](O)[C@H](O)[C@H](Cc1ccccc1)NC(=O)[C@@H]1[C@H](C)[C@H]1C(=O)NCc1ccccc1`, which Ki is on record?
The Ki was 0.47 nM.
